{"source": "the supplement of paper PMC10307832"}
{"compound": "CC(C)C[C@@H](C(=O)N[C@H](C(=O)OC1CCCC1)c1ccccc1)[C@H](O)C(=O)NO [Tosedostat] + Nc1ncn([C@H]2C[C@H](O)[C@@H](CO)O2)c(=O)n1 [Decitabine] (partner 2 µM)", "test": "relative viability (nuclei count vs DMSO), 5 days (fraction); higher = more cells survive", "settings": "first compound 0.6325 µM", "procedure,_shortened": "(§1)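 The day after seeding in 1536-well plates, lung cancer cell lines were treated by pin tool with a single drug, or with a fixed anchor-drug dose together with five library-drug doses (not always all listed) in √10 steps. After 5 days, a combined fix-and-stain solution (final 0.05% Triton X-100, 1% formaldehyde, 1 ug/ml Hoechst) was added. Nuclei counted on 4× images gave relative viability as treated counts over vehicle counts, reported as the median of duplicate plates.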"}
{"cell line": "LCLC-97TM1", "relative viability": 0.207}
{"cell line": "NCI-H2126", "relative viability": 0.478}
{"cell line": "A-427", "relative viability": 0.506}
{"cell line": "NCI-H650", "relative viability": 0.319}
{"cell line": "RERF-LC-KJ", "relative viability": 0.495}
{"cell line": "NCI-H1915", "relative viability": 0.261}
{"cell line": "NCI-H661", "relative viability": 0.522}
{"cell line": "NCI-H441", "relative viability": 0.198}
{"cell line": "NCI-H1975", "relative viability": 0.274}
{"cell line": "201T", "relative viability": 0.891}
{"cell line": "NCI-H2023", "relative viability": 0.167}
{"cell line": "HCC-827", "relative viability": 0.26}
{"cell line": "NCI-H322M", "relative viability": 0.636}
{"cell line": "NCI-H1437", "relative viability": 0.566}
{"cell line": "PC-14", "relative viability": 0.0843}
{"cell line": "NCI-H1734", "relative viability": 0.418}
{"cell line": "EPLC-272H", "relative viability": 0.328}
{"cell line": "NCI-H3122", "relative viability": 0.411}
{"cell line": "NCI-H2009", "relative viability": 0.433}
{"cell line": "NCI-H520", "relative viability": 0.459}
{"cell line": "NCI-H1651", "relative viability": 0.523}
{"cell line": "NCI-H1993", "relative viability": 0.511}
{"cell line": "HCC-15", "relative viability": 0.446}
{"cell line": "EKVX", "relative viability": 0.313}
{"cell line": "LC-2-ad", "relative viability": 0.746}
{"cell line": "NCI-H1666", "relative viability": 0.727}
{"cell line": "NCI-H2085", "relative viability": 0.503}
{"compound": "CC(C)C[C@@H](C(=O)N[C@H](C(=O)OC1CCCC1)c1ccccc1)[C@H](O)C(=O)NO [Tosedostat] + Nc1ncn([C@H]2C[C@H](O)[C@@H](CO)O2)c(=O)n1 [Decitabine] (partner 2 µM)", "test": "relative viability (nuclei count vs DMSO), 5 days (fraction); higher = more cells survive", "settings": "first compound 2 µM", "procedure,_shortened": "as §1"}
{"cell line": "HOP-62", "relative viability": 0.186}
{"cell line": "HCC-44", "relative viability": 0.747}
{"cell line": "LXF-289", "relative viability": 0.328}
{"cell line": "BEN", "relative viability": 0.665}
{"cell line": "HARA", "relative viability": 0.457}
{"cell line": "HCC-78", "relative viability": 0.658}
{"cell line": "NCI-H647", "relative viability": 0.313}
{"cell line": "LCLC-97TM1", "relative viability": 0.184}
{"cell line": "NCI-H2126", "relative viability": 0.462}
{"cell line": "A-427", "relative viability": 0.55}
{"cell line": "NCI-H650", "relative viability": 0.262}
{"cell line": "RERF-LC-KJ", "relative viability": 0.457}
{"cell line": "NCI-H1915", "relative viability": 0.214}
{"cell line": "NCI-H661", "relative viability": 0.512}
{"cell line": "NCI-H441", "relative viability": 0.244}
{"cell line": "NCI-H1975", "relative viability": 0.407}
{"cell line": "201T", "relative viability": 0.846}
{"cell line": "NCI-H2023", "relative viability": 0.183}
{"cell line": "HCC-827", "relative viability": 0.314}
{"cell line": "NCI-H322M", "relative viability": 0.621}
{"cell line": "NCI-H1437", "relative viability": 0.564}
{"cell line": "PC-14", "relative viability": 0.0753}
{"cell line": "NCI-H1734", "relative viability": 0.446}
{"cell line": "EPLC-272H", "relative viability": 0.254}
{"cell line": "NCI-H3122", "relative viability": 0.418}
{"cell line": "NCI-H2009", "relative viability": 0.329}
{"cell line": "NCI-H520", "relative viability": 0.495}
{"cell line": "NCI-H1651", "relative viability": 0.503}
{"cell line": "NCI-H1993", "relative viability": 0.525}
{"cell line": "HCC-15", "relative viability": 0.433}
{"cell line": "EKVX", "relative viability": 0.332}
{"cell line": "LC-2-ad", "relative viability": 0.811}
{"cell line": "NCI-H1666", "relative viability": 0.658}
{"cell line": "NCI-H2085", "relative viability": 0.43}
{"compound": "CC(C)C[C@@H](C(=O)N[C@H](C(=O)OC1CCCC1)c1ccccc1)[C@H](O)C(=O)NO [Tosedostat] + CC(C)C[C@H](NC(=O)[C@H](Cc1ccccc1)NC(=O)c1cnccn1)B(O)O [Bortezomib] (partner 0.002 µM)", "test": "relative viability (nuclei count vs DMSO), 5 days (fraction); higher = more cells survive", "settings": "first compound 0.02 µM", "procedure,_shortened": "as §1"}
{"cell line": "HOP-62", "relative viability": 0.719}
{"cell line": "HCC-44", "relative viability": 0.886}
{"cell line": "LXF-289", "relative viability": 1.05}
{"cell line": "BEN", "relative viability": 0.973}
{"cell line": "HARA", "relative viability": 1.16}
{"cell line": "HCC-78", "relative viability": 0.496}
{"cell line": "NCI-H647", "relative viability": 1.03}
{"cell line": "LCLC-97TM1", "relative viability": 0.529}
{"cell line": "NCI-H2126", "relative viability": 1.13}
{"cell line": "A-427", "relative viability": 1.02}
{"cell line": "NCI-H650", "relative viability": 0.958}
{"cell line": "RERF-LC-KJ", "relative viability": 1.13}
{"cell line": "NCI-H1915", "relative viability": 1.03}
{"cell line": "NCI-H661", "relative viability": 0.846}
{"cell line": "NCI-H441", "relative viability": 0.471}
{"cell line": "NCI-H1975", "relative viability": 0.427}
{"cell line": "201T", "relative viability": 1.1}
{"cell line": "NCI-H2023", "relative viability": 0.961}
{"cell line": "HCC-827", "relative viability": 1.1}
